Reference: ChEMBL document CHEMBL5653631, “A Potent and Selective ULK1 Inhibitor Suppresses Autophagy and Sensitizes Cancer Cells to Nutrient Stress” (iScience, 2018)
One block for each compound: values may come before it.

Tests used:
[1] = target: Cyclin-dependent kinase 4 (Homo sapiens) (UniProt P11802); experiment: Inhibition of human recombinant CDK4 at 500 nM related to control ULK1
[2] = target: Wee1-like protein kinase 2 (Homo sapiens) (UniProt P0C1S8); experiment: Inhibition of human recombinant Wee1B at 500 nM related to control ULK1
Wee1-like protein kinase 2 (Homo sapiens), sequence (P0C1S8 whole entry, looked up): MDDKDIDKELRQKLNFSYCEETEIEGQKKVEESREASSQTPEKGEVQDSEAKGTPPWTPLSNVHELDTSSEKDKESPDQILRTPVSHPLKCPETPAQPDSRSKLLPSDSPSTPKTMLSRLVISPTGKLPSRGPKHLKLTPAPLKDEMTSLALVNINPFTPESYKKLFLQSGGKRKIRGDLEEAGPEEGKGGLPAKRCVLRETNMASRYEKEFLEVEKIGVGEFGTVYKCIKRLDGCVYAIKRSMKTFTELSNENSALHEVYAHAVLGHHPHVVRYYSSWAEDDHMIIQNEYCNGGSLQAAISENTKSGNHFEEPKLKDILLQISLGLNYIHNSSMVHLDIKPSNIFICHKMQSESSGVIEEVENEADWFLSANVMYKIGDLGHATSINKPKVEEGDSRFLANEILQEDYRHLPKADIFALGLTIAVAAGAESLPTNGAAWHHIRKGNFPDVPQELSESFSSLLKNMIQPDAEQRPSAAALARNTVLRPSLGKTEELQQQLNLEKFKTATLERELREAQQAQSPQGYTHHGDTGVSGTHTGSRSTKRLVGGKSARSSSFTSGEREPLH

[3] = target: T1, Myosin-IIIb (Homo sapiens) (UniProt Q8WXR4); experiment: Inhibition of human recombinant MYO3B at 500 nM in presence of ATP by radiometric assay relative to control
T1 sequence (whole entry): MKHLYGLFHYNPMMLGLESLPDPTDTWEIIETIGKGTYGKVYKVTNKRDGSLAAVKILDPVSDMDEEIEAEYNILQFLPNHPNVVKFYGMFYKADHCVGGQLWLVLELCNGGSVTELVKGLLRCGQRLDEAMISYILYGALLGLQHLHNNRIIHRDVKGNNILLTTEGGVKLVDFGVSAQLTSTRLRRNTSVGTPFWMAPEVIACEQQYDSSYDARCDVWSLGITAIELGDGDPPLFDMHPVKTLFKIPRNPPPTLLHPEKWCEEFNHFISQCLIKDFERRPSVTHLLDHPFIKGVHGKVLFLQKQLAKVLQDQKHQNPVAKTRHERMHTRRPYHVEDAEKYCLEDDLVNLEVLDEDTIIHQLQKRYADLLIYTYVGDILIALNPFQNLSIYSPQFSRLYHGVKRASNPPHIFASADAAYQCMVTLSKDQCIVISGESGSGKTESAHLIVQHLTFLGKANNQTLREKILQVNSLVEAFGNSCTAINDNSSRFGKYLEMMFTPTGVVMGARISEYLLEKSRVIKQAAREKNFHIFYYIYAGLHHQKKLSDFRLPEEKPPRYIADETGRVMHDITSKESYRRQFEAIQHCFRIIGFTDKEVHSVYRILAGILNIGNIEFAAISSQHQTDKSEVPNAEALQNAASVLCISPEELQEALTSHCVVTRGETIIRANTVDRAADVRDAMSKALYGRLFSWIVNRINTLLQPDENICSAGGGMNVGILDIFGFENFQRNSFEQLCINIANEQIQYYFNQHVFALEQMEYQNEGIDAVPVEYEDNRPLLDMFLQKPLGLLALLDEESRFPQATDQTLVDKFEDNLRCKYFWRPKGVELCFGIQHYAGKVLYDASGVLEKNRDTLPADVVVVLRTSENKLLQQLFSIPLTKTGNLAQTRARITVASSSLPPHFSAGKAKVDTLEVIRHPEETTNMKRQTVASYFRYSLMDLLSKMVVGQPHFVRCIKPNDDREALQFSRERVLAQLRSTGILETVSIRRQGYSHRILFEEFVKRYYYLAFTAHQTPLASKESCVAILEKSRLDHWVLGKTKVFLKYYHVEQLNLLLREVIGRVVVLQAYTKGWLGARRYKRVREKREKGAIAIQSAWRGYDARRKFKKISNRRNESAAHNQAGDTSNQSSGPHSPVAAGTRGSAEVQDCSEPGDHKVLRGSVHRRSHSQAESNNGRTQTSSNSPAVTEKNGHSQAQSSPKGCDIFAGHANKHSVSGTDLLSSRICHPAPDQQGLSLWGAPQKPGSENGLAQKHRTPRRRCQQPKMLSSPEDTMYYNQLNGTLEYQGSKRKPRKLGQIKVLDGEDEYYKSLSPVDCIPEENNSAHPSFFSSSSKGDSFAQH

[4] = target: Serine/threonine-protein kinase 26 (Homo sapiens) (UniProt Q9P289); experiment: Inhibition of human recombinant MST4 at 15 nM in presence of ATP by radiometric assay relative to control
Serine/threonine-protein kinase 26 (Homo sapiens), sequence (Q9P289 2-416 limits assumed): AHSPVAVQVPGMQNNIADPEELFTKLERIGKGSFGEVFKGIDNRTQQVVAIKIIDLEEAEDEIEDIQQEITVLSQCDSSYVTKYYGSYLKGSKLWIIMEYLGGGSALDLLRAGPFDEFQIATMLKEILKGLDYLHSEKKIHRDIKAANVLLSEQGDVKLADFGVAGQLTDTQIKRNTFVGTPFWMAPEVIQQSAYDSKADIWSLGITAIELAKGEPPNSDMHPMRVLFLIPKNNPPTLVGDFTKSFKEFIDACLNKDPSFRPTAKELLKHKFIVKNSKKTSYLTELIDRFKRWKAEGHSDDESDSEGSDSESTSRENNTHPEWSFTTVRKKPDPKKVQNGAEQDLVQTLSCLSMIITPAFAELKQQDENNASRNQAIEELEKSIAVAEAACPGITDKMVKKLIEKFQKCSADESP

[5] = target: Serine/threonine-protein kinase PAK 4 (Homo sapiens) (UniProt O96013); experiment: Inhibition of human recombinant PAK4 at 15 nM related to control ULK1
Serine/threonine-protein kinase PAK 4 (Homo sapiens), sequence (O96013 whole entry, looked up): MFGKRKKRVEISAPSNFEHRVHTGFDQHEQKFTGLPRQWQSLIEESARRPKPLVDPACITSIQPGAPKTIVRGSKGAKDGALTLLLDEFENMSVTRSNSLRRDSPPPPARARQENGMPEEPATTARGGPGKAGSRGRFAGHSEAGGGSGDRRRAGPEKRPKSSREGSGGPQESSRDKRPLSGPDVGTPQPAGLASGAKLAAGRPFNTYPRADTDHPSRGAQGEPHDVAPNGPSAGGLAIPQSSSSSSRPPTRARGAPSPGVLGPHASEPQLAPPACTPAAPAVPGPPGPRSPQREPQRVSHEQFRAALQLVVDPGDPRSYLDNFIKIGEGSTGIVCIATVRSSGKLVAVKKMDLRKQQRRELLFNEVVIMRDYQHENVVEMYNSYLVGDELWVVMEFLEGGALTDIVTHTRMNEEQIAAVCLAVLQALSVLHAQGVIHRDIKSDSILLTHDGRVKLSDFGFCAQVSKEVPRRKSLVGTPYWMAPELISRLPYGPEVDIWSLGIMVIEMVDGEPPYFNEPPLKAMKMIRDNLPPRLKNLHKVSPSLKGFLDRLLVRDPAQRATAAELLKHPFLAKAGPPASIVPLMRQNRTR

[6] = target: T2, Dual specificity tyrosine-phosphorylation-regulated kinase 3 (Homo sapiens) (UniProt O43781); experiment: Inhibition of human recombinant DYRK3 at 40 nM in presence of ATP by radiometric assay relative to control
T2 sequence (whole entry): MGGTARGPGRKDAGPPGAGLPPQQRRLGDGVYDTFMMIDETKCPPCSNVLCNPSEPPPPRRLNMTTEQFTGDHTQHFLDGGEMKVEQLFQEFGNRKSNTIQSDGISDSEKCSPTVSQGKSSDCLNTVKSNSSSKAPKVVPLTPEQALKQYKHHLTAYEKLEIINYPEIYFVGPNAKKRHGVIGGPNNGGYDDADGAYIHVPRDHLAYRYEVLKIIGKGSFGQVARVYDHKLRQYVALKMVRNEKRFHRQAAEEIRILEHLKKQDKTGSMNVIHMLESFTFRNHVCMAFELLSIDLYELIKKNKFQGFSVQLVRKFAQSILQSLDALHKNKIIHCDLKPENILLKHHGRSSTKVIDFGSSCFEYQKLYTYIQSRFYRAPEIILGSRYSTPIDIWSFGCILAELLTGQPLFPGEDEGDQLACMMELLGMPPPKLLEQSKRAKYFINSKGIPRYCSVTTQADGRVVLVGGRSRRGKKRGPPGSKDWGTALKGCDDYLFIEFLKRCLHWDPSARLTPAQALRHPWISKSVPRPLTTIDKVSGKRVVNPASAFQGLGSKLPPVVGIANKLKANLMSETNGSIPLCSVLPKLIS

[7] = target: Tyrosine-protein kinase Lck (Homo sapiens) (UniProt P06239); experiment: Inhibition of human recombinant LCK at 40 nM related to control ULK1
Tyrosine-protein kinase Lck (Homo sapiens), sequence (P06239 2-509 limits assumed): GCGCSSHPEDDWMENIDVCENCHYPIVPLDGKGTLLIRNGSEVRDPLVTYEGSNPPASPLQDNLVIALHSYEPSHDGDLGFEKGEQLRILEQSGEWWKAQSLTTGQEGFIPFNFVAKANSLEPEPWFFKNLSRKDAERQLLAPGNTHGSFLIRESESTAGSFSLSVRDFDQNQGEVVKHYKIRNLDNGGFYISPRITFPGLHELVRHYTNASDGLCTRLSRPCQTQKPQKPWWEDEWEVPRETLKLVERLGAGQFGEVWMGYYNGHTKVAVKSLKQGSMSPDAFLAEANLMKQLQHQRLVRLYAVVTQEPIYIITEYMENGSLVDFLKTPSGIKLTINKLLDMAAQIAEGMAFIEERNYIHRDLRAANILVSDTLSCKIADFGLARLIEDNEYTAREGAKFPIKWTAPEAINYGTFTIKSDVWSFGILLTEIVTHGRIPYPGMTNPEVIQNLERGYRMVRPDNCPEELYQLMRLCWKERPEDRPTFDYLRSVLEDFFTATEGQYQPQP

[8] = target: Death-associated protein kinase 2 (Homo sapiens) (UniProt Q9UIK4); experiment: Inhibition of human recombinant DAPK2 at 40 nM in presence of ATP by radiometric assay relative to control
Death-associated protein kinase 2 (Homo sapiens), sequence (Q9UIK4 whole entry, looked up): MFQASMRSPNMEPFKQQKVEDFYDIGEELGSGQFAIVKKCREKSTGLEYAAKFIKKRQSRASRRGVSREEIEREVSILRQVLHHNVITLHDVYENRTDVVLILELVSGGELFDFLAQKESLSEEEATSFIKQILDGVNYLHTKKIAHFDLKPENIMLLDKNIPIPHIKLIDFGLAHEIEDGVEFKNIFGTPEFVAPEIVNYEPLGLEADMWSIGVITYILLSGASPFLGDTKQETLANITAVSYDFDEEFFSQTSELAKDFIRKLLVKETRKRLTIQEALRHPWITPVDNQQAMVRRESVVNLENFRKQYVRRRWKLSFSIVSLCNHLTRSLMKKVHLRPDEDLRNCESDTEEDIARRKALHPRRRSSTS

[9] = target: Serine/threonine-protein kinase PAK 4 (Homo sapiens) (UniProt O96013); experiment: Inhibition of human recombinant PAK4 at 40 nM in presence of ATP by radiometric assay relative to control
[10] = target: Mitogen-activated protein kinase 9 (Homo sapiens) (UniProt P45984); experiment: Inhibition of human recombinant JNK2 at 40 nM related to control ULK1
Mitogen-activated protein kinase 9 (Homo sapiens), sequence (P45984 whole entry, looked up): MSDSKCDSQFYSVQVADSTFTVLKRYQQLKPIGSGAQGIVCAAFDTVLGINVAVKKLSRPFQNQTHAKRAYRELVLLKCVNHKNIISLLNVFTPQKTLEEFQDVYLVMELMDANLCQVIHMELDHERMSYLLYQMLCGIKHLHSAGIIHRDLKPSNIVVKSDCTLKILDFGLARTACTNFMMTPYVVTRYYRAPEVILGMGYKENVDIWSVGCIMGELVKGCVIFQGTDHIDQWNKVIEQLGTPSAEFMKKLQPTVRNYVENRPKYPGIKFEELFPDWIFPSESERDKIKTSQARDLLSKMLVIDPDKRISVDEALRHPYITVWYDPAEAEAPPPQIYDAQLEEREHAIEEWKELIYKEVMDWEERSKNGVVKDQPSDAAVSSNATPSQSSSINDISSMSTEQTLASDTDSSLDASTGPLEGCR

Cyclin-dependent kinase 4 (Homo sapiens), sequence (P11802 whole entry): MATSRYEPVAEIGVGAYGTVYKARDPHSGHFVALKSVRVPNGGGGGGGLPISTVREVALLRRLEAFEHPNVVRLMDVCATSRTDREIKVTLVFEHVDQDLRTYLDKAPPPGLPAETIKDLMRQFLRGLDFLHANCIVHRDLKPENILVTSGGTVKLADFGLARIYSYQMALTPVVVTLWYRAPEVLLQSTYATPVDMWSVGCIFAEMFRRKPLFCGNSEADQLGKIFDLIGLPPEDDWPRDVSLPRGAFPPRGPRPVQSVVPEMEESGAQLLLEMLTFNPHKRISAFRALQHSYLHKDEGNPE

fold change (FC) [1]: 0
fold change (FC) [2]: 0.03
inhibition [3]: 11%
SMILES: CNC(=O)c1ccccc1Oc1nc(Nc2cc(OC)c(OC)c(OC)c2)ncc1Br

inhibition [4]: 0%
fold change (FC) [5]: 0
SMILES: CC(C)[C@H](NC(=O)c1cc(-c2cnn3cc(-c4ccc(OCCN5CCCCC5)cc4)cnc23)cs1)C(F)(F)F

inhibition [6]: 30%
fold change (FC) [7]: 0
inhibition [9]: 8%
fold change (FC) [10]: 0.01
SMILES: O=C(N[C@@H](C1CC1)C(F)(F)F)c1cc(-c2cnn3cc(-c4ccc(F)cc4)cnc23)cs1
inhibition [8]: 0%
